Assay [1] has as its target T1, HgPres (naked mole-rat prestin) (Heterocephalus glaber, UniProt A0AAX6NYL9).
T1 construct: gene Slc26a5
T1 sequence (A0AAX6NYL9 1-744): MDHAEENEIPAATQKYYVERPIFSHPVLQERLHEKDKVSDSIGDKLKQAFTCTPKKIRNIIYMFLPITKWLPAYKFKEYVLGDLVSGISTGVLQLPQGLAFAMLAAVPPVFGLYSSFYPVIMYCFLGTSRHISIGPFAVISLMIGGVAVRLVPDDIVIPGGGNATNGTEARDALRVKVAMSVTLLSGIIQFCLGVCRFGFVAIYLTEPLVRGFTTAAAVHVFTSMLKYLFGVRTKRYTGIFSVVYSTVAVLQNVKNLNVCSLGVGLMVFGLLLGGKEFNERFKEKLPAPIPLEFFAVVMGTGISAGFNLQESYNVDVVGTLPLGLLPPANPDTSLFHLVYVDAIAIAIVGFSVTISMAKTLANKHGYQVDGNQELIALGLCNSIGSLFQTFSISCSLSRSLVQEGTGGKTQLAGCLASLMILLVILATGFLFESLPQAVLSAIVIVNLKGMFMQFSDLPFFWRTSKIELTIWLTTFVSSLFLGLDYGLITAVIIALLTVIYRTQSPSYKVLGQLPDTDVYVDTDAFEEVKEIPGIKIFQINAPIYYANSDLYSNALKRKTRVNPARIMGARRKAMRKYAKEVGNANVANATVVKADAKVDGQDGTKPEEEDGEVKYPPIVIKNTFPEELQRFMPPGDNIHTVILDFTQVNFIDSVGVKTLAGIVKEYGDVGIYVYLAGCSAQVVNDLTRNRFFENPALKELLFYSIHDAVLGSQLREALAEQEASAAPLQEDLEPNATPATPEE
The assay is described as follows: whole-cell nonlinear capacitance (NLC). In kind it is cell-based. Particulars: 10 mM salicylate in bath; HEK293T cells; room temperature; pH 7.3.

In assay [2] the target is T2, hPres (human prestin, SLC26A5) (Homo sapiens, UniProt P58743).
T2 construct: full-length; C-terminal TEV-FLAG-EGFP tag cleaved off; HEK293S GnTI- (BacMam); digitonin micelles
T2 sequence (P58743 1-744): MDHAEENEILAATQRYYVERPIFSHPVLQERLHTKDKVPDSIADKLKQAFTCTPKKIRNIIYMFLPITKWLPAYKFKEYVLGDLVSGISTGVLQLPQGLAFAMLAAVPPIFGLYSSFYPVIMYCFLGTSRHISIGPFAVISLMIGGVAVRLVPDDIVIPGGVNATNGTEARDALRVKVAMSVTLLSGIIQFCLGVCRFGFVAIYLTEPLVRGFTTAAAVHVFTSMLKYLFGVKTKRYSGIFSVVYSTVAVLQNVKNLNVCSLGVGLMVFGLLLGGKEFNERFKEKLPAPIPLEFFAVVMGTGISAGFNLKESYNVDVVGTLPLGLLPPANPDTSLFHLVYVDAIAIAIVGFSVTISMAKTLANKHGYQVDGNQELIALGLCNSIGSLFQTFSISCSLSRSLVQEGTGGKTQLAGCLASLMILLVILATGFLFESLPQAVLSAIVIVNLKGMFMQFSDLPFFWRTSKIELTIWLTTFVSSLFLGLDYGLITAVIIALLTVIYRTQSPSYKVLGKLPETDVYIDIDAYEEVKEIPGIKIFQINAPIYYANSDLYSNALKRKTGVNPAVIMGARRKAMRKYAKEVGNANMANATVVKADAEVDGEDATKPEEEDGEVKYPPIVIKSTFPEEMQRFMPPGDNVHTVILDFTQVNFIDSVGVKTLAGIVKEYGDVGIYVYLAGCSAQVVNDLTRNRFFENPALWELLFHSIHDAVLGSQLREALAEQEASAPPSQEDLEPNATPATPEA
The assay is described as follows: isothermal titration calorimetry. In kind it is binding.

Consider `O=C(O)c1ccccc1O` [salicylate], for which the “effect on NLC at 10 mM” value in assay [1] is “The effect of salicylate on the NLC of WT (left) and S398A-HgPres (right)”. In addition, in assay [2], the affinity, expressed as Kd, was 7.08 mM.

What is called Kd is the free concentration of one partner at which half of the binding sites on the other are occupied at equilibrium, for simple one-to-one binding.

These data come from paper PMC9584906, “Cryo-EM structures of thermostabilized prestin provide mechanistic insights underlying outer hair cell electromotility” (Nature Communications, 2022).
